Measurements: patent US20240139185A1, “COMPOUNDS THAT PARTICIPATE IN COOPERATIVE BINDING AND USES THEREOF” (Revolution Medicines, Inc., priority 2018, published 2024)

What was measured:
cyclophilin A (CYPA) = cyclophilin A (CYPA) (Homo sapiens, UniProt P62937); assay: CYPA-compound binary complex formation by SPR; settings: read-out: CYPA Binding Affinity
Summary of the method: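 CypA-Avi captured on a Biotin CAPture chip (4 μg/ml), reference flow cell subtracted. Compounds injected as 10-point 2-fold dilutions from 50 μM in HBS-P+ pH7.4 with 2% DMSO; 60 s association and 60 s dissociation, solvent-corrected. Affinity obtained by steady-state fitting.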

[1] = target: T1, BRAF-GTP-KRAS-G12C complex (Homo sapiens, UniProt P01116+P62937, G12C); assay: KRAS-BRAF complex disruption through competition with CYPA-compound by TR-FRET; settings: biochemical BRAF-KRAS G12C-GTP disruption assay EC50, with CYPA
T1 construct: 50 nM of His6-KRas G12C-GTP (1-169); 500 nM of tagless CypA (1-165)
Summary of the method: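 His6-KRAS G12C-GTP (1-169, 50 nM) with tagless CypA (1-165, 500 nM) was incubated with compound for 3 h at room temperature in pH 7.3 Hepes/NaCl/MgCl2 buffer containing GST-BRAF RBD. Anti-His Eu (10 nM) and anti-GST APC (50 nM) were then added for 1.5 h, and the 665/615 nm TR-FRET ratio was read. EC50 from 4-parameter fit; for specificity, wild-type KRAS replaced G12C, and CypA was omitted to test presenter dependence.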

pERK in H358 cells = assay: pERK inhibition in H358 cells; type: cell-based, human; settings: 4 hours treatment, read-out: Cellular pERK inhibition
Summary of the method: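 Human lung cancer H358 cells in RPMI/10% FBS were exposed to compound or DMSO for 4 h. Fixed and permeabilized cells were stained overnight at 4 C with anti-phospho-ERK1/2 (Thr202/Tyr204). Near-infrared imaging read the pERK signal at 800 nm, with DRAQ5 at 700 nm.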

**Q.** With `CC1COC(=O)C2CCCN(N2)C(=O)C(NC(=O)C(C(C)C)N(C)C(=O)C2CN(C(=O)CCl)C2)Cc2cc(O)cc(c2)-c2ccc3c(c2)c(cn3CC2COC2)C1` (mixture of isomers) [Compound 226] as the molecule, how does the Kd (cyclophilin A (CYPA)) read?
**A.** ≤ 5000 nM

**Q.** And the EC50 [1]?
**A.** ≤ 500 nM

**Q.** What about the IC50 (pERK in H358 cells) of the same molecule?
**A.** 1000 to 10000 nM

**Q.** Which results are given for `CC1COC(=O)C2CCCN(N2)C(=O)C(NC(=O)C(C(C)C)N(C)C(=O)C2CN(C(=O)CCl)C2)Cc2cc(O)cc(c2)-c2ccc3c(S(C)(=O)=O)cn(c3c2)C1` (single isomer, unassigned) [Compound 110]?
**A.** Kd (cyclophilin A (CYPA)): ≤ 5000 nM; EC50 [1]: ≤ 500 nM; IC50 (pERK in H358 cells): 1000 to 10000 nM
